Laboratory results taken from article doi:10.1101/2023.12.04.569845, “Identification of 4-(6-((2-methoxyphenyl)amino)pyrazin-2-yl)benzoic acids as CSNK2A inhibitors with antiviral activity and improved selectivity over PIM3” (bioRxiv, 2023).
Read-outs that look alike come from different tables or passages of the source. Each block holds one molecule with its values, some of them ahead of it.

How the values were obtained:
Assay in all cases: biochemical
Parameters in all cases: Thermal shift (DSF, SYPRO Orange) Tm shift of recombinant kinase domains at 10 uM compound
CSNK2a2 = target: T1, CSNK2a2 (Homo sapiens, UniProt P19784)
T1 construct: kinase domain
Protocol: (§1) S23 Thermal stability kinase selectivity. The assay was performed as previously described. 9,10 Briefly, recombinant protein kinase domains at a concentration of 2 μM were mixed with 10 μM compound in a buffer containing 20 mM HEPES, pH 7.5, and 500 mM NaCl. SYPRO Orange (5000×, Invitrogen) was added as a fluorescence probe (1 µl per mL). Subsequently, temperature-dependent protein unfolding profiles were measured using the QuantStudio™ 5 realtime PCR machine (Thermo Fisher). […] The temperature was raised with a step rate of 3°C per minute. Data points were analysed with the internal software (Thermal Shift SoftwareTM Version 1.4, Thermo Fisher) using the Boltzmann equation to determine the inflection point of the transition curve.

ULK3 = target: T2, ULK3 (Homo sapiens, UniProt Q6PHR2)
T2 sequence (Q6PHR2 1-472): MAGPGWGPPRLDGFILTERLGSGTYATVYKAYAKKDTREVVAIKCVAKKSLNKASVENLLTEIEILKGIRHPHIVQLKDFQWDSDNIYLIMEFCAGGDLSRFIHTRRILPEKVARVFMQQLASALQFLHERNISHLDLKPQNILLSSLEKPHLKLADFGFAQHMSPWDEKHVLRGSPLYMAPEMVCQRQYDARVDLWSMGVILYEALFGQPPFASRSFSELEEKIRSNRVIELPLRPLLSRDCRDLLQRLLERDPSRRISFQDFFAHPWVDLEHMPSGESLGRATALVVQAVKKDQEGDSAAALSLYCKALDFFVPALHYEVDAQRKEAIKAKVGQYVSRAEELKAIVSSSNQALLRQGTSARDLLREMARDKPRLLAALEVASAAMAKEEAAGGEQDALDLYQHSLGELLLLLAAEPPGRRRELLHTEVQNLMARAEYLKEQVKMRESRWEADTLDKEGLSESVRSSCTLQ
Protocol: as §1

PLK4 = target: T3, PLK4 (Homo sapiens, UniProt O00444)
T3 sequence (O00444 1-970): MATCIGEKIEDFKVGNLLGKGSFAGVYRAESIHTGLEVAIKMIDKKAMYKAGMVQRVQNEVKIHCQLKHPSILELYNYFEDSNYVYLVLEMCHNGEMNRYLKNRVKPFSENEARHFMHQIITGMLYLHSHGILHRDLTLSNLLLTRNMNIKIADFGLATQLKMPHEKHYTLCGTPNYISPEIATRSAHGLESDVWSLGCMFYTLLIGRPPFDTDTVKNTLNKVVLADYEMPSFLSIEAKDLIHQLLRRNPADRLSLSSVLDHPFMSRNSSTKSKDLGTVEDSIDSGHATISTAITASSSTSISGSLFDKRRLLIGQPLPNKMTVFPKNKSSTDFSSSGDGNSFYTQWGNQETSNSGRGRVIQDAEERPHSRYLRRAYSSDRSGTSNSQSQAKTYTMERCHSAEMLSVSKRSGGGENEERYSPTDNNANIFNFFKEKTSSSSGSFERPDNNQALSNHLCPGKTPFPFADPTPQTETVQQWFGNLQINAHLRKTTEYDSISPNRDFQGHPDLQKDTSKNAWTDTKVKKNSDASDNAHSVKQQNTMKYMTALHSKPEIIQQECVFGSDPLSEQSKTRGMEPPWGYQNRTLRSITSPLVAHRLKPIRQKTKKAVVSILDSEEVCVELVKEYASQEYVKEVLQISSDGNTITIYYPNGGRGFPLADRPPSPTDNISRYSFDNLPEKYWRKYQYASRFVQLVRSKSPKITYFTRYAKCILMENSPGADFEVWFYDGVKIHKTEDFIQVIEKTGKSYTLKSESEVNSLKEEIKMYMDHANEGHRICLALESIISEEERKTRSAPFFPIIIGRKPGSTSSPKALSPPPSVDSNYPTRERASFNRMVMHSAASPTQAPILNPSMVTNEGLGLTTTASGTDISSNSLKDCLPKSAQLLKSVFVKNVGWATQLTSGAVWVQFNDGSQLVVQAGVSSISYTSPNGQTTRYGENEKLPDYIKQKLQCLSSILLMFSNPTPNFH
Protocol: as §1

MSK1_b = target: T4, MSK1_b (Homo sapiens, UniProt O75582)
T4 construct: gene RPS6KA5; second (C-terminal) kinase domain
Protocol: as §1

CLK1 = CLK1 (Homo sapiens, UniProt P49759)
Protocol: as §1

EPHA5 = EPHA5 (Homo sapiens, UniProt P54756)
Protocol: as §1

CLK3 = CLK3 (Homo sapiens, UniProt P49761)
Protocol: as §1

MAP2K6 = target: T5, MAP2K6 (Homo sapiens, UniProt P52564)
T5 sequence (P52564 1-334): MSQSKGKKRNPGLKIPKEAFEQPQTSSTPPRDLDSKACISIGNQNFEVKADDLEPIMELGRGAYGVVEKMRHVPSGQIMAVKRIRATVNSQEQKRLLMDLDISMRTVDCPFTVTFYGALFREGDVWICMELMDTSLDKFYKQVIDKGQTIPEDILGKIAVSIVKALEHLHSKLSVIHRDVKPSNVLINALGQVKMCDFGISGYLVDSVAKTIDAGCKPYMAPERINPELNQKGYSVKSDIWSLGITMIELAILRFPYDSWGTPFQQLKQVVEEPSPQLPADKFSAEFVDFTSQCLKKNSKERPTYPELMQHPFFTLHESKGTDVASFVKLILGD
Protocol: as §1

T1 sequence (P19784 whole entry, the tested form may be a part): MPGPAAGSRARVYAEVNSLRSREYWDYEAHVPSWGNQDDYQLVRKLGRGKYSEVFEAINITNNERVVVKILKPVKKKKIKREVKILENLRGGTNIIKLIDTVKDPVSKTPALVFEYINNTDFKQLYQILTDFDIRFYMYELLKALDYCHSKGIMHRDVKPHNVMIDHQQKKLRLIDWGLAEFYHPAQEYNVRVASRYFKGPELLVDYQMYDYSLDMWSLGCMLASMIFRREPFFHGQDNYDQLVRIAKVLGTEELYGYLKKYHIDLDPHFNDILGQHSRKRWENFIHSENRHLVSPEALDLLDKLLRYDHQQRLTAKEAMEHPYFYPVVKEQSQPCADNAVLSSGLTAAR
T4 sequence (O75582 whole entry, the tested form may be a part): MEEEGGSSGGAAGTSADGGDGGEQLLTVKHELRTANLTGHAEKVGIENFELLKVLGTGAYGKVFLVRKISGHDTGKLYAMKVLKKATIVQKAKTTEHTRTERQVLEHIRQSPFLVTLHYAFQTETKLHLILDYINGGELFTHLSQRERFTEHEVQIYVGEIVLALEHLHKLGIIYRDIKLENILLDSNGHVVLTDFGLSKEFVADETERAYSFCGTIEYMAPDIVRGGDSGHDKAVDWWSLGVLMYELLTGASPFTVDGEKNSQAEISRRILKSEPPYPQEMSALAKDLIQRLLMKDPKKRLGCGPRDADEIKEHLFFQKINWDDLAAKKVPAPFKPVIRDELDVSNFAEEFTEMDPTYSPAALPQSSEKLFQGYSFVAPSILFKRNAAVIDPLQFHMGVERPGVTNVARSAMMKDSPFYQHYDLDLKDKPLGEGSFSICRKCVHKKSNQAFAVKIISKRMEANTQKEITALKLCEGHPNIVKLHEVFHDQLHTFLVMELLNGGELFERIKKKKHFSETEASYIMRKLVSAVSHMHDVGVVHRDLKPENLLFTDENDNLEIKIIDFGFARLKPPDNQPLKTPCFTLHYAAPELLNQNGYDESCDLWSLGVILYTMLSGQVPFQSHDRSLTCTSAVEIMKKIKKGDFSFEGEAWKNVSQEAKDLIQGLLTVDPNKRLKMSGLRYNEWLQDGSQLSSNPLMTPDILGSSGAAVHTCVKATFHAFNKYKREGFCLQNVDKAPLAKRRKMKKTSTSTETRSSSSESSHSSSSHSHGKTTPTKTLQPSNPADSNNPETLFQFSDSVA
Chain of CLK1 (P49759 whole entry): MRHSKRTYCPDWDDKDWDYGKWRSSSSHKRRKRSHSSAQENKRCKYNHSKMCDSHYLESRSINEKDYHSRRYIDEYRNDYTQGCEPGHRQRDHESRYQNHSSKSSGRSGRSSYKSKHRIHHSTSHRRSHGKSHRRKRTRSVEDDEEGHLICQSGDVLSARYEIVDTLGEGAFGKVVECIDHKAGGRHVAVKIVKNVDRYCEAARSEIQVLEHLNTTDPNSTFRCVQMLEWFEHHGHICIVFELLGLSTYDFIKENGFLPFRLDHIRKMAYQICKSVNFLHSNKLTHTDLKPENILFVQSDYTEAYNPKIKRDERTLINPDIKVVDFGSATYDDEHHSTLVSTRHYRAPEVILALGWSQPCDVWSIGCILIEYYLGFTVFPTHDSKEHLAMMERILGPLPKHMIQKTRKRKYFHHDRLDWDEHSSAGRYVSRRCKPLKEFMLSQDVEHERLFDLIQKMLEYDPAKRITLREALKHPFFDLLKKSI
Chain of EPHA5 (P54756 whole entry): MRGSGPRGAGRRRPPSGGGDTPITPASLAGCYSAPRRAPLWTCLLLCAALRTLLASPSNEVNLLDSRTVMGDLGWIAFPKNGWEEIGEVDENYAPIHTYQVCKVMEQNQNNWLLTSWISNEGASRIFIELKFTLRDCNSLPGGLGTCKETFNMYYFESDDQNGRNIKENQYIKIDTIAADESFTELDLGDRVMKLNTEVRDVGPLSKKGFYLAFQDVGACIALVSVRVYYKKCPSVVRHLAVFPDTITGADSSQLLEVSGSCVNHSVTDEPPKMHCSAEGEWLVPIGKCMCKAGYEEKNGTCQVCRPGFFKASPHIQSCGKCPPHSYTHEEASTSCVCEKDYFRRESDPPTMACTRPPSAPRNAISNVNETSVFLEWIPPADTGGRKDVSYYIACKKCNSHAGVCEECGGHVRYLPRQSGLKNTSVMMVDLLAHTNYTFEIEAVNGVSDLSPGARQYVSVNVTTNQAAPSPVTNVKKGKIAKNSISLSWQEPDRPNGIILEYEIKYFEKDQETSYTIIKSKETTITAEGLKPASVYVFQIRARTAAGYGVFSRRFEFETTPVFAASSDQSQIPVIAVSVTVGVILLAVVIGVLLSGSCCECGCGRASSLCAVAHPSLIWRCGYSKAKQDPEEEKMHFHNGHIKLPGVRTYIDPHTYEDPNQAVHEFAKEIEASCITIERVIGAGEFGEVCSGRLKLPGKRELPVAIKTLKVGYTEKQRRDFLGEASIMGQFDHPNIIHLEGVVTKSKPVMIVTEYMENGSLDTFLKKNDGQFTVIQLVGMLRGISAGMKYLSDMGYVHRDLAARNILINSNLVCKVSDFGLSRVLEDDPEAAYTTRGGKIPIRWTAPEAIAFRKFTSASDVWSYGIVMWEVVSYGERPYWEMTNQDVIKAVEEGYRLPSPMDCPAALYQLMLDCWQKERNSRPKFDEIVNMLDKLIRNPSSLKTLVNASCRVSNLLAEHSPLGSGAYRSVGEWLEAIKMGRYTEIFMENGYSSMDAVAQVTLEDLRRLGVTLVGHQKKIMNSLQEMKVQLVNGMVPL
Chain of CLK3 (P49761 whole entry): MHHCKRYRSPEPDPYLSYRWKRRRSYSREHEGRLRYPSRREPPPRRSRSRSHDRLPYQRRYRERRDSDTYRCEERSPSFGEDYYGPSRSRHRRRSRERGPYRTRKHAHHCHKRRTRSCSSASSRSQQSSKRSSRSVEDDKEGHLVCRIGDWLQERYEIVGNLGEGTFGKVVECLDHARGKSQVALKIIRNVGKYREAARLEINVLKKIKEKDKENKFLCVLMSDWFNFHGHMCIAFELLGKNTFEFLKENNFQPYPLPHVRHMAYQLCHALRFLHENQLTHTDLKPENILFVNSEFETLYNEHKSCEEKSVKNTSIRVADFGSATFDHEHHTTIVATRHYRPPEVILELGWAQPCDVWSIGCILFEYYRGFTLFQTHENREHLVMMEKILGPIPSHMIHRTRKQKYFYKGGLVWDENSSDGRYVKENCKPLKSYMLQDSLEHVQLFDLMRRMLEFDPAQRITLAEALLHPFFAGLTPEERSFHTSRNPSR

- ΔTm at 10 µM (CSNK2a2; read-out: 6c): 16 °C
- ΔTm at 10 µM (ULK3; read-out: 6c): 5 °C
- ΔTm at 10 µM (PLK4; read-out: 6c): 10 °C
- ΔTm at 10 µM (MSK1_b; read-out: 6c): 6 °C
- ΔTm at 10 µM (CLK1; read-out: 6c): 7 °C
- ΔTm at 10 µM (EPHA5; read-out: 6c): 2 °C
- ΔTm at 10 µM (CLK3; read-out: 6c): 8 °C
- ΔTm at 10 µM (MAP2K6; read-out: 6c): 3 °C
Structure (SMILES): CC(C)Oc1ccc2ccn(-c3cncc(-c4ccc(C(=O)O)cc4)n3)c2c1 [6c]

- ΔTm at 10 µM (CSNK2a2; read-out: 7c): 15 °C
- ΔTm at 10 µM (ULK3; read-out: 7c): 3 °C
- ΔTm at 10 µM (PLK4; read-out: 7c): 6 °C
- ΔTm at 10 µM (MSK1_b; read-out: 7c): 6 °C
- ΔTm at 10 µM (CLK1; read-out: 7c): 7 °C
- ΔTm at 10 µM (EPHA5; read-out: 7c): 1 °C
- ΔTm at 10 µM (CLK3; read-out: 7c): 7 °C
- ΔTm at 10 µM (MAP2K6; read-out: 7c): 0 °C
Structure (SMILES): COc1ccc(OC(C)C)cc1Nc1cncc(-c2ccc(C(=O)O)cc2)n1 [7c]

- ΔTm at 10 µM (CSNK2a2; read-out: 2): 15 °C
- ΔTm at 10 µM (ULK3; read-out: 2): 7 °C
- ΔTm at 10 µM (PLK4; read-out: 2): 11 °C
- ΔTm at 10 µM (MSK1_b; read-out: 2): 11 °C
- ΔTm at 10 µM (CLK1; read-out: 2): 7 °C
- ΔTm at 10 µM (EPHA5; read-out: 2): 2 °C
- ΔTm at 10 µM (CLK3; read-out: 2): 8 °C
- ΔTm at 10 µM (MAP2K6; read-out: 2): 2 °C
Structure (SMILES): CC(C)Nc1ccc2cnn(-c3cncc(-c4ccc(C(=O)O)cc4)n3)c2c1 [compound 2, 2]
